Laboratory results from patent US9133235B2, “Macrocyclic antagonists of the motilin receptor for treatment of gastrointestinal dysmotility disorders” (Ocera Therapeutics, Inc., priority 2006, dated 2015).
Like-named read-outs stand apart in the source and are kept apart here.

Tests used:
[1] = tested on: Caco-2 cells; experiment: Caco-2 permeability; format: in vitro ADME, human
From the text: H. Determination of Caco-2 Permeability
The Caco-2 cell line, derived from a human colorectal carcinoma, has become an established in vitro model for the prediction of drug absorption across the human intestine. (Sun, D.; Yu, L. X.; Hussain, M. A.; Wall, D. A.; Smith, R. L.; Amidon, G. L. Curr. Opin. Drug Discov. Devel. 2004, 7, 75-85; Bergstrom, C. A. Basic Clin. Pharmacol. Toxicol. 2005, 96, 156-61; Balimane, P. V.; Han, Y. H.; Chong, S. AAPS J 2006, 8, E1-13; Shah, P.; Jogani, V.; Bagchi, T.; Misra, A. Biotechnol. Prog. 2006, 22, 186-198) When cultured on semi-permeable membranes, Caco-2 cells differentiate into a highly functionalized epithelial barrier with remarkable morphological and biochemical similarity to the small intestinal columnar epithelium. Fully differentiated cell monolayers can be used to assess the membrane transport properties of novel compounds.
Permeability across the Caco-2 cell layer was determined by growing the cells on a membrane placed between two (donor and acceptor) chambers. Drug candidates are typically added to the apical (A) side of the cell layer and their appearance in the basolateral (B) side is measured over incubation time. Permeability in this direction represents intestinal absorption. Permeability may also be determined from the basolateral to the apical side of the Caco-2 cell. […]
Permeability (10 μM) for compounds of the invention in the apical to basolateral and basolateral to apical direction were tested in duplicate. Samples will be collected from the donor and acceptor chambers at the beginning (0 min) and following 60 min of incubation at 37° C. and stored frozen at −70° C. until bioanalysis. Samples for each test compound generated from the Caco-2 permeability assay were further analyzed by LC-MS-MS. The permeability of [^3H]-mannitol and [^3H]-propranolol were determined in parallel as controls.
The permeability coefficient (Papp) of each compound and radiolabeled standard was determined using the following equation:
[formula] where dQ/dT represents the permeability rate, Ci denotes the initial concentration in the donor compartment, and A represents the surface area of the filter. Ci is determined from the mean concentration of duplicate samples taken prior to addition to the donor compartment. Permeability rates were calculated by plotting the cumulative amount of compound measured in the acceptor compartment over time and determining the slope of the line by linear regression analysis. The duplicate and mean apical to basolateral and basolateral to apical Papp's were reported for each compound and standard.

[2] = Plasma concentrations of compound 552 in beagle dogs during the CID study; format: in vivo; details: male, dog, iv; for AUC(0-t): read-out: average AUC0-t (converted)
Description: The test article No. 2 (compound 552) was intravenously infused via an implanted catheter over 45 minutes to all the animals in Group 4 four days before the start of TA1 (irinotecan) treatment and throughout the 28-day study period. […] The daily dosage (i.e. 5.0, 15.0 and 5.0 mg/kg/day for Groups 2 to 4 respectively) was administered by two equal doses (i.e. 2.5, 7.5 and 2.5 mg/kg/occasion for Groups 2 to 4 respectively) which were separate by at least 6 h. Each dose was infused at a dose volume of 10 mL/kg/h. The vehicle for compound 552 was administered to all dogs in Group 5 by following the same dosing procedures and regimen for compound 552 administration for 23 days (from Day 6 to Day 28). The actual volume infused was calculated and adjusted based on the most recent practical body weight of each animal. The syringes/bags were changed at appropriate intervals as necessary and the weights recorded prior to the start and at the end of the infusion.
Body weights were recorded for all animals once prior to group assignment, and approximately one week prior to initiation of treatment. Body weights were recorded for all animals up to 1 day prior to dosing and twice weekly thereafter during the treatment/observation periods, as well as terminally prior to necropsy (fasted). Food consumption was measured daily during the week prior to treatment and throughout the treatment/observation periods. A series of blood samples (approximately 2.0 mL each) were removed from each dog in Groups 2 and 3 after the first (am) infusion on the first day of treatment with compound 552 and after the second (pm) infusion on the last day of treatment with compound 552. (Note: the second (pm) infusion on the first day of treatment with compound 552 was performed after completion of the last blood sampling). For this purpose, each dog was bled by venipuncture and the samples collected into tubes containing the anticoagulant, K2 EDTA. Tubes were placed on wet ice pending processing. On each occasion, samples were collected prior to the start of infusion, 5, 15, 30, 45, 50, 65, 95, 135 minutes, 3 and 6 hours after the start of infusion of compound 552. Following collection, the samples were centrifuged at approximately 1500×g, approximately 4° C., for at least 10 minutes and the resulting plasma recovered and dispensed into two aliquots and stored frozen (at approximately −80° C.) pending shipment.
Plasma concentrations of compound 552 in male beagle dogs receiving low and high intravenous doses of compound 552 as part of the above experiment were determined. Plasma samples were prepared for analysis by solid phase extraction and analyzed by LC-MS/MS. […] The average AUC0-t was similar on the first (78,233 ng·min/mL) and last day (83,047 ng·min/mL) of dosing for the low dose group (2.5 mg/kg/occasion) and was proportionally higher on the first day (246,073 ng·min/mL) of dosing for the high dose group (7.5 mg/kg/occasion).

Papp A to B ([1]; 10 μM, apical to basolateral, 60 min, 37° C.) [cm/sec × 10^−6] | Papp B to A ([1]; 10 μM, basolateral to apical, 60 min, 37° C.) [cm/sec × 10^−6] | B to A/A to B ([1]; ratio of Papp) | Cmax ([2]; 2.5 mg/kg, 2.5 mg/kg 45-min infusion, first day of treatment) [ng/mL] | Cmax ([2]; 2.5 mg/kg, 2.5 mg/kg 45-min infusion, last day of treatment) [ng/mL] | AUC(0-t) ([2]; 2.5 mg/kg, low dose group 2.5 mg/kg/occasion, first day) [ng·h/mL] | AUC(0-t) ([2]; 2.5 mg/kg, low dose group 2.5 mg/kg/occasion, last day) [ng·h/mL] | Cmax ([2]; 7.5 mg/kg, 7.5 mg/kg 45-min infusion, first day of treatment) [ng/mL] | Cmax ([2]; 7.5 mg/kg, 7.5 mg/kg 45-min infusion, last day of treatment) [ng/mL] | AUC(0-t) ([2]; 7.5 mg/kg, high dose group 7.5 mg/kg/occasion, first day) [ng·h/mL] | AUC(0-t) ([2]; 7.5 mg/kg, high dose group 7.5 mg/kg/occasion, last day, one animal with particularly high AUC) [ng·h/mL] | Structure (SMILES)
5 | 11 | 2 | – | – | – | – | – | – | – | – | CC(C)[C@H]1NC(=O)[C@@H](Cc2cccc(C(F)(F)F)c2)NCCOc2ccccc2CCCNC(=O)[C@H](CN(C)C)NC1=O [Compound 502]
– | – | – | ~1500 | ~1800 | 1300 | 1380 | ~3400 | ~5000 | 4100 | 6350 | CCC[C@@H]1NC(=O)[C@@H](C(C)C)NC(=O)[C@@H](Cc2ccc(O)c(Cl)c2)N[C@@H](C)COc2ccccc2CCCNC1=O [Compound 552]
